Target: unphosphorylated-BTK kinase domain (UP-BTK), GST-tagged human BTK (389-659aa) (Homo sapiens (Human), UniProt Q06187)
Assay: BTK kinase lanthascreen binding assay
Conditions: competition with 50 nM Tracer 236, 60 minutes; pIC50 = negative log of the IC50 in molar
Protocol: BTK kinase lanthascreen binding assay: A BTK kinase lanthascreen binding assay monitors compound binding to unphosphorylated-BTK kinase domain (UP-BTK), by competing with a fluorescent labeled tracer. […] Data were analyzed using Xlfit™ version 5.3 from ID Business Solutions (Guildford), Microsoft Excel add-in. pIC50 refers to the negative log of the IC50 in molar.

Sequence of unphosphorylated-BTK kinase domain (UP-BTK), GST-tagged human BTK (389-659aa) (Q06187 389-659): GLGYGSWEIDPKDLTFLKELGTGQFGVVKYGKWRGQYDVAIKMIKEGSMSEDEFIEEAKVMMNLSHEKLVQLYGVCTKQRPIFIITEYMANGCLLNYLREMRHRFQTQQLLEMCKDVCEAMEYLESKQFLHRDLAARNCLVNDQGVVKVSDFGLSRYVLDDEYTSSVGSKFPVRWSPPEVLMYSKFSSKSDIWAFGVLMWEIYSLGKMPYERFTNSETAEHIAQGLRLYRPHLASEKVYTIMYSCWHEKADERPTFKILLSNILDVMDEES

Question: With `C=CC(=O)N[C@@H]1CC[C@@H](NC(=O)c2sc3nccc4c3c2NC(=O)N4c2ccc(Oc3ccccc3)nc2)C1` (racemic) [Example 188, N-((1RS, 3RS)-3-Acrylamidocyclopentyl)-4-oxo-5-(6-phenoxypyridin-3-yl)-4,5-dihydro-3H-1-thia-3,5,8-triazaacenaphthylene-2-carboxamide] as the molecule, how does the “BTK_I_binding pIC50” value read?
Answer: 7.11

Reference: US12065446B2, “Inhibitors of Bruton's tyrosine kinase and method of their use” (JANSSEN PHARMACEUTICA NV, priority 2015, dated 2024)
